Data reported in EP2929785A1, “A PLA inhibitor for inhibition of fat absorption” (PAT GmbH, priority 2014, dated 2015).

System: retrogradely perfused mouse livers
Assay: Single pass [3H]oleate extraction rates in retrogradely perfused mouse livers
Assay type: in vivo, C57BL/6 mice
Conditions: mice pretreated i.p. 23 mg/kg, 1 h
Description: Twelve-week-old female C57BL/6 mice were injected intraperitoneally with 1 ml UDCA-LPE [ChemCon, Freiburg, Germany] (Chamulitrat W. et al. Hepatology. 2009; 50: 143-154) at 23 mg/kg or phosphate-buffered saline (PBS) as a control with 5% Tween 80. […] Retrograde perfusion of oxygenized 100 µM albumin (A4503, Sigma, Munich, Germany) in PBS was performed at 37°C and a flow rate of 4 ml/min, with the perfusate collected from the opened portal vein (Hoffmann MJ et al. Hepatology. 2012; 55: 1369-1378). After equilibration for 5 min, a 1 ml bolus of 200 µM [3H]oleate (Perkin Elmer, Rodgau, Germany) along with 100 µM [methyl-14 C]albumin (Biotrend, Cologne, Germany) or 100 µM [14C]sucrose (Perkin Elmer) was introduced through the stopcock and the perfusion was allowed to continue for 5 min. Outflow samples were collected every 15 s and single pass extraction rates were determined as previously described (Hoffmann MJ et al. Toxicol. Sciences. 1999; 49: 40-47).

“ursodeoxycholatelysophosphatidylethanolamide [UDCA-LPE]” was tested, and the “cumulative proportion of the [3H]oleate extracted” value (200 µM [3H]oleate:albumin (2:1)) was 0.30 ± 0.03 and the “inhibition of fatty acid influx” value (vs controls) was 34%.
